In US9958439B2, “Carbohydrate detection” (RICHTER LIFE SCIENCE DEVELOPMENT AB, priority 2012, dated 2018):
Where two headings read alike, the source gives them in different places.

Experiments:
[1] = for RFU change (Correlation analysis) / RFU change (Signal deviation with increasing [Carbohydrate]) / λmax change: 3 μM probe; for RFU change (Correlation analysis): probe-specific excitation λ, emission 545 nm; for RFU change (Signal deviation with increasing [Carbohydrate]) / λmax change: spectral analysis, Excitation 300-500, Emission 545; for carbohydrate can be detected and/or differentiated by the LCO: conclusion from change in signal magnitude and/or shift in λmax; for Gradient Parameters (gradient of regression line) / Linear relationship / Quality of Gradient: linear regression
Experimental: (§1) The excitation spectrum of the probe was analyzed for wavelengths 300-500 nm with emission read at 545 nm.
(§2) 3 μM of each probe was applied to serial two fold dilutions of the insoluble carbohydrate. Respective probes were excited at wavelengths unique to each probe (specified in figure), and emission was read at 545 nm.
(§3) Serial dilutions of carbohydrate suspensions were prepared in dH2O. Concentrations ranging from 10 to 0.039 mg/ml was used for β-1,3-glucan, cellulose and chitin, whereas 5 to 0.019 mg/ml was used for sodium alginate, glucose, amylose, glycogen, cellulobiose, heparin, chondroitin sulfate A. 3 μM of each LCO probe was added to 1 ml aliquots of each concentration of carbohydrate, after which 100 μl was dispensed in triplicates into 96 well plates. Excitation spectra were collected by exciting the sample from 300 to 500 nm and detecting emission at 545 nm. Detection of carbohydrate is concluded when there is a reproducible change in λmax and/or RFU intensity with reference to the negative control. Data from three concentrations, as well as the negative control are shown for each carbohydrate as specified in respective figure.
(§4) The excitation wavelength (emission detected at 545 nm) selected for each LCO is either (1) the λmax, or (2) the excitation wavelength which suffers the lowest background. A linear regression analysis is performed to determine the relationship between the carbohydrate concentration and RFU.

[2] = Experimental: 3 μM of each probe was applied to serial two fold dilutions of the insoluble carbohydrate of which the concentration shown here are 5 mg/ml (_.), 2.5 mg/ml (. . . ), 1.25 mg/ml (__) and 0 mg/ml (_). The excitation spectrum of the probe was analyzed for wavelengths 300-500 nm with emission read at 545 nm.
as §2, §3, §4

[3] = remark: listed apart in the source
Experimental: (§5) 3 μM of each probe was applied to serial two fold dilutions of the carbohydrate of which the concentration shown here are 5 mg/ml (_.), 2.5 mg/ml (. . . ) 1.25 mg/ml (__) and 0 mg/ml (_). The excitation spectrum of the probe was analyzed for wavelengths 300-500 nm with emission read at 545 nm.
3 μM of each probe was applied to serial two fold dilutions of the carbohydrate. Respective probes were excited at wavelengths unique to each probe (specified in figure), and emission was read at 545 nm. […] The mean increase in signal (_) with [Glucose] and the fitted regression line (__) is shown.
as §3, §4

[4] = for RFU change (Correlation analysis): probe-specific excitation λ, emission 545 nm
Experimental: as §5
(§6) 3 μM of each probe was applied to serial two fold dilutions of the carbohydrate. Respective probes were excited at wavelengths unique to each probe (specified in figure), and emission was read at 545 nm.
as §3, §4

[5] = for RFU change (Correlation analysis): probe-specific excitation λ, emission 545 nm; for carbohydrate can be detected and/or differentiated by the LCO: conclusion from change in signal magnitude and/or shift in λmax; for Gradient Parameters (gradient of regression line) / Linear relationship / Quality of Gradient: linear regression
Experimental: 3 μM of each probe was applied to serial two fold dilutions of the carbohydrate of which the concentration shown here are 5 mg/ml (_.), 2.5 mg/ml (. . . ), 1.25 mg/ml (__) and 0 mg/ml (_). The excitation spectrum of the probe was analyzed for wavelengths 300-500 nm with emission read at 545 nm.
as §6, §3, §4

[6] = remark: listed apart in the source
Experimental: as §1, §6, §3, §4

[7] = β-1,3-glucan concentration vs RFU
[8] = Sodium alginate 5-0.019 mg/ml, 3 μM probe, spectral analysis, Excitation 300-500, Emission 545
[9] = sodium alginate concentration vs RFU, linear regression
[10] = glucose concentration vs RFU, linear regression
[11] = Cellulobiose 5-0.019 mg/ml, 3 μM probe, spectral analysis, Excitation 300-500, Emission 545
[12] = amylose concentration vs RFU, linear regression
[13] = cellulobiose concentration vs RFU, linear regression
[14] = Glycogen 5-0.019 mg/ml, 3 μM probe, spectral analysis, Excitation 300-500, Emission 545
[15] = Chondroitin Sulfate A 5-0.019 mg/ml, 3 μM probe, spectral analysis, Excitation 300-500, Emission 545
[16] = Chondroitin Sulfate A concentration vs RFU, linear regression

In the case of `Cl.Cl.c1csc(-c2cc(CCn3ccnc3)c(-c3ccc(-c4sc(-c5cccs5)cc4CCn4ccnc4)s3)s2)c1` [pHTIm, penta Hydrogen Thiophene Imidazole], the “RFU change (Correlation analysis)” value ([1]; Cellulose 10-[…]) is reported as “Increase”, the “RFU change (Signal deviation with increasing [Carbohydrate])” value ([1]; Cellulose 10-[…]) is reported as “Increase” and the λmax change ([1]; Cellulose 10-[…]) is reported as “Redshift”. The “carbohydrate can be detected and/or differentiated by the LCO” value ([1]; Cellulose) was “can be detected and/or differentiated”, the “RFU change (Correlation analysis)” value ([1]; Chitin 10-[…]) was “Decreases” and the “RFU change (Signal deviation with increasing [Carbohydrate])” value ([1]; Chitin 10-[…]) was “Decrease”. For the same molecule, the λmax change ([1]; Chitin 10-[…]) was “Redshift”, the “carbohydrate can be detected and/or differentiated by the LCO” value ([1]; Chitin) was “can be detected and/or differentiated” and the “Gradient Parameters (gradient of regression line)” value (from here on “Gradient Parameters”) ([1]; cellulose concentration vs RFU) was 3063 ± 564.3. The Linear relationship ([1]; cellulose concentration vs RFU) was “Significant”, the “Quality of Gradient” value ([1]; cellulose concentration vs RFU) was “Positive” and the “Gradient Parameters” value ([1]; chitin concentration vs RFU) was −383.6 ± 71.4. The Linear relationship ([1]; chitin concentration vs RFU) was “Significant”, the “Quality of Gradient” value ([1]; chitin concentration vs RFU) was “Negative” and the Sensitivity ([1]; to cellulose) was “Yes”. The Sensitivity ([1]; to chitin) was “Yes”, the Sensitivity ([1]; to β-1,3-glucan) was “No” and the “RFU change (Correlation analysis)” value ([1]; β-1,3-glucan 10-[…]) was “Decrease”. The “RFU change (Signal deviation with increasing [Carbohydrate])” value ([1]; β-1,3-glucan 10-[…]) was “Decrease”, the λmax change ([1]; β-1,3-glucan 10-[…]) was “Redshift” and the “Gradient Parameters” value [1, 7] was −177.1 ± 89.6. For the same molecule, the “Quality of Gradient” value [1, 7] was “Horizontal”, the “RFU change (Correlation analysis)” value ([2]; Sodium alginate 5-0.019 mg/ml, 3 μM probe, probe-specific excitation λ, emission 545 nm) was “Increases” and the “RFU change (Signal deviation with increasing [Carbohydrate])” value [2, 8] was “Increases”. The λmax change [2, 8] was “Redshift”, the “carbohydrate can be detected and/or differentiated by the LCO” value ([2]; Sodium alginate, conclusion from change in signal magnitude and/or shift in λmax) was “can be detected and/or differentiated” and the “Gradient Parameters” value [2, 9] was 266 ± 29.2. The Linear relationship [2, 9] was “Significant”, the “Quality of Gradient” value [2, 9] was “Positive” and the Sensitivity ([2]; to sodium alginate) was “Yes”. The “RFU change (Correlation analysis)” value ([3]; Glucose 5-0.019 mg/ml, 3 μM probe, probe-specific excitation λ, emission 545 nm) was “Unclear”, the “RFU change (Signal deviation with increasing [Carbohydrate])” value ([3]; Glucose 5-0.019 mg/ml, 3 μM probe, spectral analysis, Excitation 300-500, Emission 545) was “Unclear” and the “Gradient Parameters” value [3, 10] was 10.9 ± 25.5. The “Quality of Gradient” value [3, 10] was “Horizontal”, the Sensitivity ([3]; to glucose) was “No” and the “RFU change (Correlation analysis)” value ([4]; Amylose 5-0.019 mg/ml, 3 μM probe) was “Decreases”. The “RFU change (Signal deviation with increasing [Carbohydrate])” value ([4]; Amylose 5-0.019 mg/ml, 3 μM probe, spectral analysis, Excitation 300-500, Emission 545) was “Decreases”, the “carbohydrate can be detected and/or differentiated by the LCO” value ([4]; Amylose, conclusion from change in signal magnitude and/or shift in λmax) was “can be detected and/or differentiated” and the “RFU change (Correlation analysis)” value ([4]; Cellulobiose 5-0.019 mg/ml, 3 μM probe) was “Unclear”. The “RFU change (Signal deviation with increasing [Carbohydrate])” value [4, 11] was “Increases”, the λmax change [4, 11] was “No change” and the “Gradient Parameters” value [4, 12] was −655 ± 110. For the same molecule, the Linear relationship [4, 12] was “Significant”, the “Quality of Gradient” value [4, 12] was “Negative” and the “Gradient Parameters” value [4, 13] was 75.1 ± 61.5. For the same molecule, the “Quality of Gradient” value [4, 13] was “Horizontal”, the Sensitivity ([4]; to amylose) was “Yes” and the Sensitivity ([4]; to cellulobiose) was “No”. The “RFU change (Correlation analysis)” value ([5]; Glycogen 5-0.019 mg/ml, 3 μM probe) was “Increases”, the “RFU change (Signal deviation with increasing [Carbohydrate])” value [5, 14] was “Increases” and the λmax change [5, 14] was “Redshift”. The “carbohydrate can be detected and/or differentiated by the LCO” value ([5]; Glycogen) was “can be detected and/or differentiated”, the “RFU change (Correlation analysis)” value ([5]; Heparin 5-0.019 mg/ml, 3 μM probe) was “Increases” and the “RFU change (Signal deviation with increasing [Carbohydrate])” value ([5]; Heparin 5-0.019 mg/ml, 3 μM probe, spectral analysis, Excitation 300-500, Emission 545) was “Unclear”. The “carbohydrate can be detected and/or differentiated by the LCO” value ([5]; Heparin) was “can be detected and/or differentiated”, the “Gradient Parameters” value ([5]; glycogen concentration vs RFU) was 835.8 ± 26.6 and the Linear relationship ([5]; glycogen concentration vs RFU) was “Significant”. For the same molecule, the “Quality of Gradient” value ([5]; glycogen concentration vs RFU) was “Positive”, the “Gradient Parameters” value ([5]; heparin concentration vs RFU) was 96.3 ± 36.8 and the Linear relationship ([5]; heparin concentration vs RFU) was “Significant”. For the same molecule, the “Quality of Gradient” value ([5]; heparin concentration vs RFU) was “Positive”, the Sensitivity ([5]; to glycogen) was “Yes” and the Sensitivity ([5]; to heparin) was “Yes”. The “RFU change (Correlation analysis)” value ([6]; Chondroitin Sulfate A 5-0.019 mg/ml, 3 μM probe, probe-specific excitation λ, emission 545 nm) was “Increases”, the “RFU change (Signal deviation with increasing [Carbohydrate])” value [6, 15] was “Increases” and the λmax change [6, 15] was “Redshift”. The “Gradient Parameters” value [6, 16] was 1177 ± 203.6, the Linear relationship [6, 16] was “Significant” and the “Quality of Gradient” value [6, 16] was “Positive”. For the same molecule, the “carbohydrate can be detected and/or differentiated by the LCO” value ([6]; Chondroitin sulfate A, conclusion from change in signal magnitude and/or shift in λmax) was “can be detected and/or differentiated” and the Sensitivity ([6]; to Chondroitin Sulfate A) was “Yes”.
